In patent US20090286837A1, “Oxadiazole compounds as urokinase inhibitors” (priority 2005, published 2009):

Test system: BN-472 metastasizing breast tumor
Assay: anti-tumor and anti-metastatic efficacy in the BN-472 metastasizing breast tumor model
Format: in vivo, brown Norwegian rats
Details: oral administration, daily doses of 0.2 or 2 mg/kg for three weeks, rats
Experimental: Experiments were carried out in order to investigate the anti-tumor efficacy and anti-metastatic efficacy of WX-771, WX-780 and WX-781.
The assay system used was the BN-472 metastasizing breast tumor in brown Norwegian rats. The kind of tumor tissue used is described, for example, in Kort et al., J. Natl. Cancer Inst. 72 (1984) 709-713. The rats were purchased from Harlan Nederland, NL 5960-AD Horst, the Netherlands, and were from six to eight weeks old with a weight of from 128 g to 170 g.
(4-Chlorobenzylsulfonyl-D-Ser-Gly-4-guanidinobenzyl-amide, hydrochloride salt) whose anti-tumor and anti-metastatic efficacy with subcutaneous injection had been disclosed was also studied for comparative purposes. For administration, 0.75 mg of WX-340 was dissolved in 20 ml of 5% (weight/volume) D-manitol in water and administered by subcutaneous injection in doses of 0.2 mg of drug/kg of rat.
A phosphatidylcholine vehicle was administered as control and was obtained by introducing 400 mg of soya phosphatidylcholine in 20 ml of phosphate-buffered saline and 400 μl of absolute ethanol. 0.8 ml of the suspension was administered orally to the rats as control.
WX-771 (7.5 mg) was introduced into 20 ml of a soya phosphatidylcholine solution as used also for the control. To administer 2 mg/kg, 0.8 ml of this suspension was administered orally. For a second group, the stock solution was diluted 1:10 to obtain a dose of 0.2 mg/kg when administering likewise 0.8 ml per rat.
(§1) WX-780 (7.5 mg) was introduced into 20 ml of a soya phosphatidylcholine suspension according to the above-described control suspension. To administer a dose of 2 mg/kg, the rats were given 0.8 ml of said suspension. To administer a dose of 0.2 mg/kg, the stock solution was diluted 1:10, with 0.8 ml per rat still being administered.
as §1, with “WX-781” for “WX-780”, “orally.” for “of said suspension.”, “ml/rat” for “ml per rat”, “administered orally.” for “administered.”

Row | SMILES | anti-metastatic action | anti-tumor action
1 | CC(C)(C)C(=O)OC[C@@H](NS(=O)(=O)Cc1ccc(Cl)cc1)C(=O)NCC(=O)NCc1ccc(NC(=N)NOC(=O)C(C)(C)C)cc1 [WX-771] | significant | significant
2 | C[C@@H](C(=O)NCc1ccc(Nc2noc(C(C)(C)C)n2)cc1)N(C)C(=O)[C@@H](COC(=O)C(C)(C)C)NS(=O)(=O)Cc1ccc(Cl)cc1 [WX-780] | significant | significant
3 | CC(C)(C)C(=O)OC[C@@H](NS(=O)(=O)Cc1ccc(Cl)cc1)C(=O)NCC(=O)NCc1ccc(Nc2noc(C(C)(C)C)n2)cc1 [WX-781] | significant | significant
